Data as given in US20250115577A1, “BCL-2 Inhibitors” (Eil Therapeutics, Inc., priority 2021, published 2025).

Columns and labels:
BCL-2 = BCL-2 (Homo sapiens (Human), UniProt P10415); assay: BCL-2 TR-FRET Assay (primary PPI inhibition); type: binding; conditions: 60 min incubation, read-out: BCL2 IC50
Procedure: Example A. BCL-2 TR-FRET Assay (BPS Bioscience, #50222)
(§1) The following assay concentrations and times were used: 3 ng of BCL-2, 5 μL of 1:100 anti-His Tb-labeled donor, 5 μL of 1:100 Dye-labeled acceptor, 5 µL of 1:40 BCL-2 Peptide Ligand, and 2 μL of 200× test compound, with 60 min incubation time (final concentration of DMSO 0.5%). The results of the assay were read using a plate reader with the following parameters: TR FRET, 340ex/620 and 665em; 60 usec Delay; and 500 usec integration.
(§2) Instrumentation: CLARIOstar Plus (BMG LABTECH); Biomek FX for liquid handling (Beckman Coulter).

BCL-xL = BCL-xL (Homo sapiens (Human), UniProt Q07817); assay: BCL-xL TR-FRET Assay (primary PPI inhibition); type: binding; conditions: 60 min incubation, read-out: BCLxL IC50
Procedure: Example B. BCL-xL TR-FRET Assay (BPS Bioscience, #50223)
as §1, with “used: 10.5” for “used: 3”, “of BCL-xL,” for “of BCL-2,”, “of 1:120” for “of 1:100”, “5 μL” for “5 µL”, “of 1:96 BCL-xL” for “of 1:40 BCL-2”, “Ligand,” for “Ligand, and”
as §2

BCL-2 [G101V] = BCL-2 [G101V] (Homo sapiens (Human), UniProt P10415, G101V); assay: BCL-2 [G101V] TR-FRET Assay (primary PPI inhibition); type: binding; conditions: 60 min incubation, read-out: BCL2[G101V] IC50
Procedure: Example C. BCL-2 [G101V]TR-FRET Assay
as §1, with “0.22 ng/μl” for “3 ng”, “BCL-2 (SinoBiological, #10195-H08E1),” for “BCL-2,”, “μL” for “µL”, “Ligand (BPS Bioscience, #50223),” for “Ligand,”
as §2

RS4-11 cells = assay: Cell viability assay (CellTiter-Glo), RS4-11; type: cell-based; conditions: Homo sapiens, RS4-11, 72 h, 3 days of incubation
Procedure: (§3) Example D. Cell Viability Assays (Cell lines HEK293, RS4-11, MOLT-4)
(§4) Cells were seeded at a density of 4000 cells per well in the 384-well clear bottom plate (Greiner Cat #781090) to the 45 μL total volume of either DMEM (PanEco, Cat #C420, for HEK293) or RPMI (PanEco, Cat #C330, for other cell lines) with 10% FBS(HyClone Cat #SV30160.03). Prior to adding compounds, the HEK293 cells were allowed to adhere overnight at 37° C. and 5% CO2. The 500× compounds solutions in DMSO(Sigma Cat #D2650) were dispersed into a 384-well compound plate (Diamond Well Plate, Axigen, Cat #P-384-120 SQ-C—S) including only DMSO control. The 1 μL aliquots of the 500× compounds from the compound plate were added to 49 μL of culture medium in the Dilution plate (Diamond Well Plate, Axigen, Cat #P-384-120 SQ-C—S), mixed and then the 5 μL aliquts of the 10× compound solutions were transferred to cells followed by centrifugation at 100 g for 1 min. Final DMSO concentration was 0.2%. After 3 days of incubation the 10 μL aliquots of CellTiter-Glo (Promega, CAT #G7572) were added to the cells, plate was centrifuged at 100 g for 1 min and the luminescence was measured on the CLARIOstar Plus (BMG LABTECH) instrument.
as §2

[1] = Cell viability assay (CellTiter-Glo), HEK293; type: cell-based; conditions: human, HEK293 cells, 3 days of incubation
Procedure: as §3, §4, §2

MOLT-4 cells = assay: Cell viability assay (CellTiter-Glo), MOLT-4; type: cell-based; conditions: Homo sapiens, 72 h, 3 days of incubation
Procedure: as §3, §4, §2

[2] = test system: caspase-3 and -7 activities in RS4-11 cells; assay: Caspase-3/7 activation (Caspase-Glo 3/7) in RS4-11 cells; type: cell-based; conditions: Homo sapiens, 3.5 h, read-out: Cas-3/7 EC50
Procedure: Example E. Caspase-3/7 Activation
Assay Principle: The Caspase-Glo 3/7 Assay is homogeneous, luminescent assay that measures caspase-3 and -7 activities. The assay provides a luminogenic caspase-3/7 substrate, which contains the tetrapeptide sequence DEVD, in a reagent optimized for caspase activity.
Assay Procedure: Incubate RS4-11 (ATCC, CRL-1873) cells in the 384-well white plate (Corning, #3570) with varying concentrations of test compounds for 3.5 h in a humidified incubator at 37° C. and 5% CO2 […]. Add 15 μL of the Caspase-Glo (Promega, #8212) reagent to each well and to incubate the plate for 30 min at rt. Read on the CLARIOstar Plus (BMG LABTECH) instrument.
as §2

Sequence of BCL-xL (Q07817 whole entry): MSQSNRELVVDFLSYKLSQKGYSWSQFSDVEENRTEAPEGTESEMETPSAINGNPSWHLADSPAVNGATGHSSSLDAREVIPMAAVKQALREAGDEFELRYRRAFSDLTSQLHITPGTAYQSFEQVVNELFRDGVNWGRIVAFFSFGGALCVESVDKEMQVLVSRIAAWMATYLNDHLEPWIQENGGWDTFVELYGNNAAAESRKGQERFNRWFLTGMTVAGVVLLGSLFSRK

SMILES	IC50 (BCL-2) [nM]	IC50 (BCL-xL) [nM]	IC50 (BCL-2 [G101V]) [nM]	CC50 (RS4-11 cells) [nM]	CC50 at 3 days [1] [nM]	CC50 (MOLT-4 cells) [nM]	EC50 [2] [nM]
COc1cccc(CN(C(=O)c2cc(-c3cc(Cl)c(OC(F)F)cc3C(=O)N3Cc4ccccc4C[C@H]3CN3CCOCC3)n(C)c2C)c2ccc(O)cc2)c1C [Compound 36, 5-[5-chloro-4-(difluoromethoxy)-2-[(3S)-3-(morpholinomethyl)-3,4-dihydro-1H-isoquinoline-2-carbonyl]phenyl]-N-(4-hydroxyphenyl)-N-[(3-methoxy-2-methyl-phenyl)methyl]-1,2-dimethyl-pyrrole-3-carboxamide]	5 to 10	2000 to 5000	100 to 1000	> 200	> 25000	5000 to 10000	> 500
COc1cccc(CN(C(=O)c2cc(-c3cc(F)ccc3C(=O)N3Cc4ccccc4C[C@H]3CN3CCOCC3)n(C)c2C)c2ccc(O)cc2)c1C [Compound 52, 5-[5-fluoro-2-[(3S)-3-(morpholinomethyl)-3,4-dihydro-1H-isoquinoline-2-carbonyl]phenyl]-N-(4-hydroxyphenyl)-N-[(3-methoxy-2-methyl-phenyl)methyl]-1,2-dimethyl-pyrrole-3-carboxamide]	≤ 5	2000 to 5000	≤ 100	≤ 100	> 25000	≤ 5000	200 to 500
COc1cccc(CN(C(=O)c2cc(-c3cc(Cl)ccc3C(=O)N3Cc4ccccc4C[C@H]3CN3CCOCC3)n3c2CCCC3)c2ccc(Cl)cc2)c1C [Compound 2, 3-[5-chloro-2-[(3S)-3-(morpholinomethyl)-3,4-dihydro-1H-isoquinoline-2-carbonyl]phenyl]-N-(4-chlorophenyl)-N-[(3-methoxy-2-methyl-phenyl)methyl]-5,6,7,8-tetrahydroindolizine-1-carboxamide]	10 to 50	> 5000	> 1000				> 500
COc1cccc(CN(C(=O)c2cc(-c3ccc(OC(F)F)cc3C(=O)N3Cc4ccccc4C[C@H]3CN3CCOCC3)n(C)c2C)c2ccc(O)cc2)c1C [Compound 31, 5-[4-(difluoromethoxy)-2-[(3S)-3-(morpholinomethyl)-3,4-dihydro-1H-isoquinoline-2-carbonyl]phenyl]-N-(4-hydroxyphenyl)-N-[(3-methoxy-2-methyl-phenyl)methyl]-1,2-dimethyl-pyrrole-3-carboxamide]	5 to 10	2000 to 5000	> 1000	> 200	> 25000	≤ 5000	> 500
COc1cccc(CN(C(=O)c2cc(-c3cc(S(C)(=O)=O)ccc3C(=O)N3Cc4ccccc4C[C@H]3CN3CCOCC3)n(C)c2C)c2ccc(O)cc2)c1C [Compound 49, N-(4-hydroxyphenyl)-N-[(3-methoxy-2-methyl-phenyl)methyl]-1,2-dimethyl-5-[5-methylsulfonyl-2-[(3S)-3-(morpholinomethyl)-3,4-dihydro-1H-isoquinoline-2-carbonyl]phenyl]pyrrole-3-carboxamide]	≤ 5	2000 to 5000	≤ 100	≤ 100	> 25000	5000 to 10000	
N#Cc1ccccc1CN(C(=O)c1cc(-c2cc(Cl)ccc2C(=O)N2Cc3ccccc3C[C@H]2CN2CCOCC2)n2c1CCCC2)c1ccc(Cl)cc1 [Compound 1, 3-[5-chloro-2-[(3S)-3-(morpholinomethyl)-3,4-dihydro-1H-isoquinoline-2-carbonyl]phenyl]-N-(4-chlorophenyl)-N-[(2-cyanophenyl)methyl]-5,6,7,8-tetrahydroindolizine-1-carboxamide]	> 50	> 5000	> 1000				> 500
COc1cccc(CN(C(=O)c2cc(-c3cc(NC(C)=O)ccc3C(=O)N3Cc4ccccc4C[C@H]3CN3CCOCC3)n(C)c2C)c2ccc(O)cc2)c1C [Compound 48, 5-[5-acetamido-2-[(3S)-3-(morpholinomethyl)-3,4-dihydro-1H-isoquinoline-2-carbonyl]phenyl]-N-(4-hydroxyphenyl)-N-[(3-methoxy-2-methyl-phenyl)methyl]-1,2-dimethyl-pyrrole-3-carboxamide]	5 to 10	2000 to 5000	100 to 1000				
